Test results as given in patent US20240207247A1, “METHODS FOR THE COMBINED ADMINISTRATION OF DEUTETRABENAZINE AND A CYP2D6 INHIBITOR” (Neurocrine Biosciences, Inc., priority 2021, published 2024).

Key:
[1] = Phase 1 open-label 2-sequence crossover single-dose pharmacokinetic study of deutetrabenazine metabolites; assay type: in vivo, human (healthy male and female subjects); conditions: share of total DHTBZ exposure after single dose deutetrabenazine 24 mg, healthy subjects
Protocol: A phase 1, open-label, 2-sequence crossover study was conducted to evaluate the HTBZ PK profile following administration of valbenazine (40 mg) or deutetrabenazine (24 mg) to a total of 18 healthy male and female subjects. Subjects received a single dose of valbenazine 40 mg on Day 1 and a single dose of deutetrabenazine 24 mg on Day 16; or received a single dose of deutetrabenazine 24 mg on Day 1 and a single dose of valbenazine 40 mg on Day 16. Valbenazine 40 mg was administered as one 40 mg capsule and deutetrabenazine 24 mg was administered as two 12 mg tablets. Study drug was administered at approximately 0800 hours, approximately 30 minutes after the start of a standard breakfast. […] PK parameters were determined using non-compartmental analysis with Phoenix WinNonlin 8.3 software. The in vitro pharmacology of the deuterated HTBZ metabolites was assessed using competitive radioligand binding assays.

[2] = paroxetine 20 mg daily for 8 days, then single 22.5 mg dose of deutetrabenazine; 24 healthy subjects; cited from earlier work

Structure (SMILES) | AUC (% of Total) [1] [%] | increase in mean half-life in the presence of paroxetine [2]
[2H]C([2H])([2H])Oc1cc2c(cc1OC([2H])([2H])[2H])[C@H]1C[C@@H](O)[C@H](CC(C)C)CN1CC2 [[+]-α-DHTBZ] | 2 | –
COc1cc2c(cc1OC)[C@@H]1C[C@H](O)[C@@H](CC(C)C)CN1CC2 [α-DHTBZ] | – | approximately 1.5 fold

Further lines, with some results ahead:

AUC (% of Total) [1] [%] | Structure (SMILES) | increase in mean half-life in the presence of paroxetine [2]
29 | [2H]C([2H])([2H])Oc1cc2c(cc1OC([2H])([2H])[2H])[C@H]1C[C@H](O)[C@H](CC(C)C)CN1CC2 [[+]-β-DHTBZ, (+)-β-3-isobutyl-9,10-di(methoxy-d3)-1,3,4,6,7,11b-hexahydro-2H-pyrido[2,1-a]isoquinolin-2-ol] | –
66 | [2H]C([2H])([2H])Oc1cc2c(cc1OC([2H])([2H])[2H])[C@@H]1C[C@H](O)[C@@H](CC(C)C)CN1CC2 [[−]-α-DHTBZ, (−)-α-3-isobutyl-9,10-di(methoxy-d3)-1,3,4,6,7,11b-hexahydro-2H-pyrido[2,1-a]isoquinolin-2-ol] | –
3 | [2H]C([2H])([2H])Oc1cc2c(cc1OC([2H])([2H])[2H])[C@@H]1C[C@@H](O)[C@@H](CC(C)C)CN1CC2 [[−]-β-DHTBZ, (−) -β-3-isobutyl-9,10-di(methoxy-d3)-1,3,4,6,7,11b-hexahydro-2H-pyrido[2,1-a]isoquinolin-2-ol] | –
